Like-named read-outs stand apart in the source and are kept apart here.
Legend:
SCC9 cells = assay: MTT cell viability assay, SCC9 oral cancer cells; type: cell-based, human; conditions: for IC50: MTT; for SCC9 S.I.: selective index = IC50 HGF / IC50 SCC9; for dose-dependent cytotoxicity: SCC9, MTT
Procedure: (§1) Human SCC-4, SCC-9, and SCC-25 cells derived from a human oral tongue SCC (squamous cell carcinoma) were obtained from the ATCC (CRL-1624, CRL-1629, and CRL-1628, respectively) and maintained in 1:1 DMEM/F12 (Dulbecco’s modified Eagle medium and Ham’s F12 medium; Gibco (Thermo Fisher, Waltham, MA, USA)) supplemented with 10% (v/v) FBS (fetal bovine serum; Invitrogen, Thermo Fisher, Waltham, MA, USA) and 400 ng/mL hydrocortisone (Sigma-Aldrich Co., St. Louis, MO, USA). Primary normal human gingival fibroblasts were obtained from the ATCC (PCS-201-018; HGF) and maintained in DMEM supplemented with 10% (v/v) FBS and were used in a maximum of six passages. The cells were grown in a humidified environment containing 5% CO2 at 37 °C. For all biological experiments, the compounds and control nutlin 3a were solubilized in 100% DMSO (all Sigma-Aldrich) to a final concentration of 10 mM. Carboplatin stock was prepared in water (Fauldcarbo®; LibbsFarmacêutica, São Paulo, SP, Brazil) and was used as a standard anticancer compound.
(§2) The viability of SCC cell lines, HT-29, HCT-116, HEP2G and primary human fibroblast cells was evaluated using the MTT assay as in [26]. Briefly, the cells were grown in duplicates in 96-well plates (5 × 10^3 cells/well) until confluence. Then, the medium was removed, fresh medium was added, and the cells were returned to the incubator in the presence of different compounds. DMSO at the same concentrations was used as a 100% cell viability control. After 48 h, the cells were incubated with 5 mg/mL MTT reagent (3-(4,5-dimethyl-2-thiazolyl)-2,5-diphenyl-2-H-tetrazolium bromide) (Sigma-Aldrich Co., St. Louis, MO, USA) for 3.5 h. After that, formazan crystals were dissolved in MTT solvent solution (DMSO/methanol 1:1 v/v), and the absorbance at 560 nm was evaluated using an EPOCH microplate spectrophotometer (BioTek Instruments, Winooski, VT, USA) with the background absorbance at 670 nm subtracted. Each of the six compounds was tested at six or seven different concentrations, ranging from 0.3 µM to 200 µM in cancer cell lines (SCC-4, SCC-9 and SCC-25) and 0.3 µM to 200 µM in primary normal human gingival fibroblasts. Controls (carboplatin, nutlin 3a) were tested at six or seven different concentrations ranging from 0.05 µM to 1000 µM in cancer cells and normal cells, depending on the compound.
(§3) The data are presented as means ± SD. IC values for the MTT assays were obtained by nonlinear regression using the […] 5.0 program (Intuitive Software for Science, San Diego, CA, USA) from at least three independent experiments. A dose–response (inhibitor) vs. response curve using the least squares method was used to determine the IC50, SD, and R^2 of the data. The selectivity index was calculated as SI = IC50 of the compound in normal oral fibroblast cells/IC50 of the same compound for each cancer cell line (SCC-4, SCC-9, SCC-25, HCT-116, HT29 and HEP2G), and the mean was calculated when indicated.
Initially, the six chalcones (1a–f) were submitted to the MTT assay to evaluate their cytotoxicity. The assay was performed using the oral cancer cell line SCC9, and the results were analyzed by a non-linear regression curve to determine the value of the half maximal inhibitory concentration (IC50). As controls, known chemotherapeutic agents were used, namely carboplatin, routinely used in the treatment of oral cancer, and doxorubicin, widely used for other types of cancers.

SCC4 cells = assay: MTT cell viability assay, SCC4 cells; type: cell-based, human; conditions: for IC50: 48 h, MTT; for SCC4 S.I.: selective index = IC50 HGF / IC50 SCC4
Procedure: as §1, §2, §3

[1] = test system: Primary Gingival Fibroblast (HGF); assay: MTT cell viability assay, primary normal gingival fibroblasts; type: cell-based, human; conditions: 48 h
Procedure: as §1, §2, §3

[2] = test system: Oral Tumor Cells (SCC9, SCC25, SCC4); assay: MTT assay, average over oral tumor cells; type: cell-based, human; conditions: for IC50: mean of SCC9, SCC25, SCC4; for Average S.I.: IC50 of normal primary fibroblasts / average IC50 of tumor cells
Procedure: as §2, §3

SCC25 cells = assay: MTT cell viability assay, SCC25 cells; type: cell-based, human; conditions: for IC50: 48 h, MTT; for SCC25 S.I.: selective index = IC50 HGF / IC50 SCC25
Procedure: as §1, §2, §3

HT29 (adenocarcinoma) = assay: MTT cell viability assay, HT29; type: cell-based
Procedure: as §2, §3

[3] = Solubility observed during in vitro testing; type: physicochemical; conditions: in vitro cytotoxicity testing
[4] = Homo sapiens, SCC-9, 48 h, 48 h, read-out: SCC9 IC50
[5] = Homo sapiens, SCC-9, 48 h, SCC9, 48 h, read-out: IC50

Row | IC50 (SCC9 cells; [5]) [µM] | melting point [°C] | SMILES | SCC9 S.I. (SCC9 cells) | SCC4 S.I. (SCC4 cells) | Average S.I. [2] | SCC25 S.I. (SCC25 cells) | solubility (in words) [3] | further results
1 | 2.99 |  | COc1cccc2c1C(=O)c1c(O)c3c(c(O)c1C2=O)C[C@@](O)(C(=O)CO)C[C@@H]3O[C@H]1C[C@H](N)[C@H](O)[C@H](C)O1 [Doxorubicin, doxorubicin, reference compound] | 1.16 | 6.09 | 2.34 | 3.86 |  | IC50 (SCC9 cells; [4]): 2.99 µM; IC50 (SCC4 cells; Homo sapiens, SCC-4): 0.57 µM; IC50 ([1]; Homo sapiens, Fibroblast): 3.47 µM; IC50 ([2]; Homo sapiens): 1.49 µM; IC50 (SCC25 cells; Homo sapiens, SCC-25): 0.9 µM
2 |  | 253 to 255 | Nc1ccccc1C(=O)/C=C/c1cn(-c2ccc([N+](=O)[O-])cc2)nn1 [1d, (E)-1-(2-Aminophenyl)-3-(1-(4-nitrophenyl)-1H-1,2,3-triazol-4-yl)prop-2-en-1-one] |  |  |  |  |  | dose-dependent cytotoxicity (SCC9 cells): all presented dose-dependent cytotoxicity, except
3 |  |  | COc1ccc(C2=N[C@@H](c3ccc(Cl)cc3)[C@@H](c3ccc(Cl)cc3)N2C(=O)N2CCNC(=O)C2)c(OC(C)C)c1 [nutlin-3a, reference compound] | 2.72 |  |  |  |  | IC50 (SCC9 cells; 48 h, read-out: SCC9 IC50): 18 µM; IC50 [1]: 49.1 µM; IC50 (HT29 (adenocarcinoma); 48 h, MTT): 6.79 µM; HT29 S.I. (HT29 (adenocarcinoma); IC50 HGF / IC50 HT29): 7.22
4 | 12.7 | 183 to 185 | Nc1ccccc1C(=O)/C=C/c1cn(-c2ccccc2)nn1 [1b, (E)-1-(2-Aminophenyl)-3-(1-phenyl-1H-1,2,3-triazol-4-yl)prop-2-en-1-one] | 2.80 | 2.83 | 2.82 | 2.85 | highly soluble | IC50 (SCC9 cells; [4]): 12.7 µM; IC50 (SCC4 cells; Homo sapiens, SCC-4): 12.6 µM; IC50 ([1]; Homo sapiens, Fibroblast): 35.7 µM; IC50 ([2]; Homo sapiens): 12.6 µM; IC50 (SCC25 cells; Homo sapiens, SCC-25): 12.5 µM
5 | 9.95 | 128 to 130 | Nc1ccccc1C(=O)/C=C/c1cnn(-c2ccccc2)n1 [1a, (E)-1-(2-Aminophenyl)-3-(2-phenyl-2H-1,2,3-triazol-4-yl)prop-2-en-1-one] |  |  |  |  | formed highly insoluble well-structured crystals at low concentrations | 
6 | 9.32 | 174 to 176 | COc1ccc(-n2cc(/C=C/C(=O)c3ccccc3N)nn2)cc1 [1c, (E)-1-(2-Aminophenyl)-3-(1-(4-methoxyphenyl)-1H-1,2,3-triazol-4-yl)prop-2-en-1-one] |  |  |  |  | formed highly insoluble well-structured crystals at low concentrations | 
7 |  | 220 to 222 | CCOC(=O)c1ccc(-n2cc(/C=C/C(=O)c3ccccc3N)nn2)cc1 [1e, Ethyl(E)-4-(4-(3-(2-aminophenyl)-3-oxoprop-1-en-1-yl)-1H-1,2,3-triazol-1-yl)benzoate] |  |  |  |  |  | dose-dependent cytotoxicity (SCC9 cells): all presented dose-dependent cytotoxicity, except
8 |  |  | N.N.O=C([O-])C1(C(=O)[O-])CCC1.[Pt+2] [Carboplatin, carboplatin, reference compound] | 2.15 | 2.26 | 2.03 | 1.75 |  | IC50 (SCC9 cells; 48 h, read-out: SCC9 IC50): 156 µM; IC50 (SCC9 cells; SCC9, 48 h, read-out: IC50): 156 µM; IC50 (SCC4 cells): 148 µM; IC50 [1]: 335 µM; IC50 [2]: 165 µM; IC50 (SCC25 cells): 191 µM

Source: PMC10295897, “A Novel MDM2-Binding Chalcone Induces Apoptosis of Oral Squamous Cell Carcinoma” (Biomedicines, 2023)
